Measured values: PMC4554834 (Bioorganic & medicinal chemistry, 2015)

Target: T1, human OX1 receptors (Homo sapiens, UniProt O43613)
T1 sequence (O43613 1-425): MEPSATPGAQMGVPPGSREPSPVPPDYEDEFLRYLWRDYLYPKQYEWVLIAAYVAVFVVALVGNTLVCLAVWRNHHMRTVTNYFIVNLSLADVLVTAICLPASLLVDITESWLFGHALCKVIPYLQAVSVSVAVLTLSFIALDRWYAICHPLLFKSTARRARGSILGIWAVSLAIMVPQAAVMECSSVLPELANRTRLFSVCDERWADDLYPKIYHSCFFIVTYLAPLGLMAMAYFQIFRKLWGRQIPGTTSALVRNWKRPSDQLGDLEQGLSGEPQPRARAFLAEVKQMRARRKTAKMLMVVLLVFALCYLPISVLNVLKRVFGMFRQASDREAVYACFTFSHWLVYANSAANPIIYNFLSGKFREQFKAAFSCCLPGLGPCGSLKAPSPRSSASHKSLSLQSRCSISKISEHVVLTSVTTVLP
Assay: Calcium mobilization Ke
Format: cell-based
Settings: for OX1 potency (in words): qualitative statement

[1] = pre-incubation increased to 45 min and 60 min
[2] = simultaneous addition of antagonist and Orexin A

Kb [nM]	Compound	other results
427 ± 69	CCOC(=O)CNc1ccc2c(c1)CCN(CC(=O)NCc1ccccc1)C2Cc1ccc(OC)c(OC)c1 (stereo not drawn) [26a, Ethyl 2-({2-[(benzylcarbamoyl)methyl]-1-[(3,4-dimethoxyphenyl)methyl]-1,2,3,4-tetrahydroisoquinolin-6-yl}amino)acetate]	OX1 potency (in words): some activity
2180 ± 360	COc1ccc(CCNc2ccc3c(c2)CCN(CC(=O)NCc2ccccc2)C3Cc2ccc(OC)c(OC)c2)cc1OC (stereo not drawn) [25j, N-Benzyl-2-(6-{[2-(3,4-dimethoxyphenyl)ethyl]amino}-1-[(3,4-dimethoxyphenyl)methyl]-1,2,3,4-tetrahydroisoquinolin-2-yl)acetamide]	mode of antagonism at OX1 (15 minute pre-incubation): insurmountable antagonism; mode of antagonism at OX1 [1]: competitive antagonists; mode of antagonism at OX1 [2]: competitive antagonists
5230 ± 680	CCCCCCNC(=O)Nc1ccc2c(c1)CCN(CC(=O)NCc1ccccc1)C2Cc1ccc(OC)c(OC)c1 (stereo not drawn) [28e, N-Benzyl-2-{1-[(3,4-dimethoxyphenyl)methyl]-6-[(hexylcarbamoyl)amino]-1,2,3,4-tetrahydroisoquinolin-2-yl}acetamide]	OX1 potency (in words): no significant potency
> 10000	COc1ccc(CC2c3ccc(OCC(F)(F)F)cc3CCN2CC(=O)NCc2ccccc2)cc1OC (stereo not drawn) [17b, N-Benzyl-2-{1-[(3,4-dimethoxyphenyl)methyl]-6-(2,2,2-trifluoroethoxy)-1,2,3,4-tetrahydroisoquinolin-2-yl}acetamide]	–
> 10000	COc1ccc(CC2c3ccc(OC(C)C)cc3CCN2CC(=O)NCc2ccccc2)cc1OC (stereo not drawn) [17c, N-Benzyl-2-{1-[(3,4-dimethoxyphenyl)methyl]-6-(propan-2-yloxy)-1,2,3,4-tetrahydroisoquinolin-2-yl}acetamide]	–
> 10000	CCOC(=O)CCCCCCNc1ccc2c(c1)CCN(CC(=O)NCc1ccccc1)C2Cc1ccc(OC)c(OC)c1 (stereo not drawn) [26g, Ethyl 7-({2-[(benzylcarbamoyl)methyl]-1-[(3,4-dimethoxyphenyl)methyl]-1,2,3,4-tetrahydroisoquinolin-6-yl}amino)heptanoate]	–
> 10000	CCCOc1ccc2c(c1)CCN(CC(=O)NCc1ccccc1)C2Cc1ccc(OC)c(OC)c1 (stereo not drawn) [17a, N-Benzyl-2-{1-[(3,4-dimethoxyphenyl)methyl]-6-propoxy-1,2,3,4-tetrahydroisoquinolin-2-yl}acetamide]	–
> 10000	COc1ccc(CC2c3ccc(NC(C)C)cc3CCN2CC(=O)NCc2ccccc2)cc1OC (stereo not drawn) [25e, N-Benzyl-2-{1-[(3,4-dimethoxyphenyl)methyl]-6-[(propan-2-yl)amino]-1,2,3,4-tetrahydroisoquinolin-2-yl}acetamide]	–
1100 ± 290	COc1ccc(CC2c3ccc(NCc4ccccc4)cc3CCN2CC(=O)NCc2ccccc2)cc1OC (stereo not drawn) [25h, N-Benzyl-2-[6-(benzylamino)-1-[(3,4-dimethoxyphenyl)methyl]-1,2,3,4-tetrahydroisoquinolin-2-yl]acetamide]	–
> 10000	COc1ccc(CC2c3ccc(NCC(=O)N(C)C)cc3CCN2CC(=O)NCc2ccccc2)cc1OC (stereo not drawn) [26h, 2-({2-[(Benzylcarbamoyl)methyl]-1-[(3,4-dimethoxyphenyl)methyl]-1,2,3,4-tetrahydroisoquinolin-6-yl}amino)-N,N-dimethylacetamide]	OX1 potency (in words): large decline in potency
> 10000	COc1ccc(CC2c3ccc(OCc4ccccc4)cc3CCN2CC(=O)NCc2ccccc2)cc1OC (stereo not drawn) [17d, N-Benzyl-2-[6-(benzyloxy)-1-[(3,4-dimethoxyphenyl)methyl]-1,2,3,4-tetrahydroisoquinolin-2-yl]acetamide]	–
1370 ± 100	COc1ccc(CC2c3ccc(N(C)C)cc3CCN2CC(=O)NCc2ccccc2)cc1OC (stereo not drawn) [25a, N-Benzyl-2-{1-[(3,4-dimethoxyphenyl)methyl]-6-(dimethylamino)-1,2,3,4-tetrahydroisoquinolin-2-yl}acetamide]	–
> 10000	COc1ccc(CC2c3ccc(N4CCCCC4)cc3CCN2CC(=O)NCc2ccccc2)cc1OC (stereo not drawn) [25q, N-Benzyl-2-{1-[(3,4-dimethoxyphenyl)methyl]-6-(piperidin-1-yl)-1,2,3,4-tetrahydroisoquinolin-2-yl}acetamide]	OX1 potency (in words): no detectable potency
2480 ± 6	COc1ccc(CC2c3ccc(N4CCCC4)cc3CCN2CC(=O)NCc2ccccc2)cc1OC (stereo not drawn) [25p, N-Benzyl-2-{1-[(3,4-dimethoxyphenyl)methyl]-6-(pyrrolidin-1-yl)-1,2,3,4-tetrahydroisoquinolin-2-yl}acetamide]	OX1 potency (in words): some potency
> 10000	COc1ccc(CC2c3ccc(NS(C)(=O)=O)cc3CCN2CC(=O)NCc2ccccc2)cc1OC (stereo not drawn) [compound 27, N-Benzyl-2-{1-[(3,4-dimethoxyphenyl)methyl]-6-methanesulfonamido-1,2,3,4-tetrahydroisoquinolin-2-yl}acetamide]	OX1 potency (in words): no significant potency
> 10000	CCCCCN(C)c1ccc2c(c1)CCN(CC(=O)NCc1ccccc1)C2Cc1ccc(OC)c(OC)c1 (stereo not drawn) [25s, N-Benzyl-2-{1-[(3,4-dimethoxyphenyl)methyl]-6-[methyl(pentyl)amino]-1,2,3,4-tetrahydroisoquinolin-2-yl}acetamide]	–
1000 ± 190	CCOC(=O)CCCOc1ccc2c(c1)CCN(CC(=O)NCc1ccccc1)C2Cc1ccc(OC)c(OC)c1 (stereo not drawn) [17e, Ethyl 4-({2-[(benzylcarbamoyl)methyl]-1-[(3,4-dimethoxyphenyl)methyl]-1,2,3,4-tetrahydroisoquinolin-6-yl}oxy)butanoate]	mode of antagonism at OX1 (15 minute pre-incubation): insurmountable antagonism; mode of antagonism at OX1 [1]: competitive antagonists; mode of antagonism at OX1 [2]: competitive antagonists
2350 ± 490	CCCN(CCC)c1ccc2c(c1)CCN(CC(=O)NCc1ccccc1)C2Cc1ccc(OC)c(OC)c1 (stereo not drawn) [25d, N-Benzyl-2-{1-[(3,4-dimethoxyphenyl)methyl]-6-(dipropylamino)-1,2,3,4-tetrahydroisoquinolin-2-yl}acetamide]	–
619 ± 96	CCCN(C)c1ccc2c(c1)CCN(CC(=O)NCc1ccccc1)C2Cc1ccc(OC)c(OC)c1 (stereo not drawn) [25c, N-Benzyl-2-{1-[(3,4-dimethoxyphenyl)methyl]-6-[methyl(propyl)amino]-1,2,3,4-tetrahydroisoquinolin-2-yl}acetamide]	–
1400 ± 240	COc1ccc(CC2c3ccc(N(C)CC4CC4)cc3CCN2CC(=O)NCc2ccccc2)cc1OC (stereo not drawn) [25g, N-Benzyl-2-{6-[(cyclopropylmethyl)(methyl)amino]-1-[(3,4-dimethoxyphenyl)methyl]-1,2,3,4-tetrahydroisoquinolin-2-yl}acetamide]	–
> 10000	CCOC(=O)CCCCCCOc1ccc2c(c1)CCN(CC(=O)NCc1ccccc1)C2Cc1ccc(OC)c(OC)c1 (stereo not drawn) [17f, Ethyl 7-({2-[(benzylcarbamoyl)methyl]-1-[(3,4-dimethoxyphenyl)methyl]-1,2,3,4-tetrahydroisoquinolin-6-yl}oxy)heptanoate]	–
1010 ± 200	COc1ccc(CC2c3ccc(NCCCC(=O)OC(C)(C)C)cc3CCN2CC(=O)NCc2ccccc2)cc1OC (stereo not drawn) [26e, Tert-butyl 4-({2-[(benzylcarbamoyl)methyl]-1-[(3,4-dimethoxyphenyl)methyl]-1,2,3,4-tetrahydroisoquinolin-6-yl}amino)butanoate]	mode of antagonism at OX1 (15 minute pre-incubation): insurmountable antagonism; mode of antagonism at OX1 [1]: competitive antagonists; mode of antagonism at OX1 [2]: competitive antagonists
> 10000	CCCCCCN(C)c1ccc2c(c1)CCN(CC(=O)NCc1ccccc1)C2Cc1ccc(OC)c(OC)c1 (stereo not drawn) [25u, N-Benzyl-2-{1-[(3,4-dimethoxyphenyl)methyl]-6-[hexyl(methyl)amino]-1,2,3,4-tetrahydroisoquinolin-2-yl}acetamide]	–
> 10000	CCOC(=O)C(C)Nc1ccc2c(c1)CCN(CC(=O)NCc1ccccc1)C2Cc1ccc(OC)c(OC)c1 (stereo not drawn) [26b, Ethyl 2-({2-[(benzylcarbamoyl)methyl]-1-[(3,4-dimethoxyphenyl)methyl]-1,2,3,4-tetrahydroisoquinolin-6-yl}amino)propanoate]	–
> 10000	CCCNc1ccc2c(c1)CCN(CC(=O)NCc1ccccc1)C2Cc1ccc(OC)c(OC)c1 (stereo not drawn) [25b, N-Benzyl-2-{1-[(3,4-dimethoxyphenyl)methyl]-6-(propylamino)-1,2,3,4-tetrahydroisoquinolin-2-yl}acetamide]	–
> 10000	COc1ccc(CC2c3ccc(NCC4CC4)cc3CCN2CC(=O)NCc2ccccc2)cc1OC (stereo not drawn) [25f, N-Benzyl-2-{6-[(cyclopropylmethyl)amino]-1-[(3,4-dimethoxyphenyl)methyl]-1,2,3,4-tetrahydroisoquinolin-2-yl}acetamide]	–
> 10000	COc1ccc(CC2c3ccc(NCc4ccncc4)cc3CCN2CC(=O)NCc2ccccc2)cc1OC (stereo not drawn) [25m, N-Benzyl-2-{1-[(3,4-dimethoxyphenyl)methyl]-6-[(pyridin-4-ylmethyl)amino]-1,2,3,4-tetrahydroisoquinolin-2-yl}acetamide]	–
> 10000	COc1ccc(CC2c3ccc(NC(=O)c4ccccc4)cc3CCN2CC(=O)NCc2ccccc2)cc1OC (stereo not drawn) [28c, N-{2-[(Benzylcarbamoyl)methyl]-1-[(3,4-dimethoxyphenyl)methyl]-1,2,3,4-tetrahydroisoquinolin-6-yl}benzamide]	–
> 10000	CCCCCCNc1ccc2c(c1)CCN(CC(=O)NCc1ccccc1)C2Cc1ccc(OC)c(OC)c1 (stereo not drawn) [25t, N-Benzyl-2-{1-[(3,4-dimethoxyphenyl)methyl]-6-(hexylamino)-1,2,3,4-tetrahydroisoquinolin-2-yl}acetamide]	–

Compound	Kb [nM]	other results
CCCCOc1ccc2c(c1)C(Cc1ccc(OC)c(OC)c1)N(CC(=O)NCc1ccccc1)CC2 (stereo not drawn) [10e, N-Benzyl-2-{7-butoxy-1-[(3,4-dimethoxyphenyl)methyl]-1,2,3,4-tetrahydroisoquinolin-2-yl}acetamide]	230 ± 70	–
